The values that follow come from US20250179055A1, “Substituted 2-(pyrrolidine-3-yl)acetic acid derivative, preparation method and use thereof” (INNOVSTONE THERAPEUTICS LIMITED, priority 2023, published 2025).

Lp(a) assembly in HepG2 cells overexpressing ApoA protein, sequence (P08519 20-2040): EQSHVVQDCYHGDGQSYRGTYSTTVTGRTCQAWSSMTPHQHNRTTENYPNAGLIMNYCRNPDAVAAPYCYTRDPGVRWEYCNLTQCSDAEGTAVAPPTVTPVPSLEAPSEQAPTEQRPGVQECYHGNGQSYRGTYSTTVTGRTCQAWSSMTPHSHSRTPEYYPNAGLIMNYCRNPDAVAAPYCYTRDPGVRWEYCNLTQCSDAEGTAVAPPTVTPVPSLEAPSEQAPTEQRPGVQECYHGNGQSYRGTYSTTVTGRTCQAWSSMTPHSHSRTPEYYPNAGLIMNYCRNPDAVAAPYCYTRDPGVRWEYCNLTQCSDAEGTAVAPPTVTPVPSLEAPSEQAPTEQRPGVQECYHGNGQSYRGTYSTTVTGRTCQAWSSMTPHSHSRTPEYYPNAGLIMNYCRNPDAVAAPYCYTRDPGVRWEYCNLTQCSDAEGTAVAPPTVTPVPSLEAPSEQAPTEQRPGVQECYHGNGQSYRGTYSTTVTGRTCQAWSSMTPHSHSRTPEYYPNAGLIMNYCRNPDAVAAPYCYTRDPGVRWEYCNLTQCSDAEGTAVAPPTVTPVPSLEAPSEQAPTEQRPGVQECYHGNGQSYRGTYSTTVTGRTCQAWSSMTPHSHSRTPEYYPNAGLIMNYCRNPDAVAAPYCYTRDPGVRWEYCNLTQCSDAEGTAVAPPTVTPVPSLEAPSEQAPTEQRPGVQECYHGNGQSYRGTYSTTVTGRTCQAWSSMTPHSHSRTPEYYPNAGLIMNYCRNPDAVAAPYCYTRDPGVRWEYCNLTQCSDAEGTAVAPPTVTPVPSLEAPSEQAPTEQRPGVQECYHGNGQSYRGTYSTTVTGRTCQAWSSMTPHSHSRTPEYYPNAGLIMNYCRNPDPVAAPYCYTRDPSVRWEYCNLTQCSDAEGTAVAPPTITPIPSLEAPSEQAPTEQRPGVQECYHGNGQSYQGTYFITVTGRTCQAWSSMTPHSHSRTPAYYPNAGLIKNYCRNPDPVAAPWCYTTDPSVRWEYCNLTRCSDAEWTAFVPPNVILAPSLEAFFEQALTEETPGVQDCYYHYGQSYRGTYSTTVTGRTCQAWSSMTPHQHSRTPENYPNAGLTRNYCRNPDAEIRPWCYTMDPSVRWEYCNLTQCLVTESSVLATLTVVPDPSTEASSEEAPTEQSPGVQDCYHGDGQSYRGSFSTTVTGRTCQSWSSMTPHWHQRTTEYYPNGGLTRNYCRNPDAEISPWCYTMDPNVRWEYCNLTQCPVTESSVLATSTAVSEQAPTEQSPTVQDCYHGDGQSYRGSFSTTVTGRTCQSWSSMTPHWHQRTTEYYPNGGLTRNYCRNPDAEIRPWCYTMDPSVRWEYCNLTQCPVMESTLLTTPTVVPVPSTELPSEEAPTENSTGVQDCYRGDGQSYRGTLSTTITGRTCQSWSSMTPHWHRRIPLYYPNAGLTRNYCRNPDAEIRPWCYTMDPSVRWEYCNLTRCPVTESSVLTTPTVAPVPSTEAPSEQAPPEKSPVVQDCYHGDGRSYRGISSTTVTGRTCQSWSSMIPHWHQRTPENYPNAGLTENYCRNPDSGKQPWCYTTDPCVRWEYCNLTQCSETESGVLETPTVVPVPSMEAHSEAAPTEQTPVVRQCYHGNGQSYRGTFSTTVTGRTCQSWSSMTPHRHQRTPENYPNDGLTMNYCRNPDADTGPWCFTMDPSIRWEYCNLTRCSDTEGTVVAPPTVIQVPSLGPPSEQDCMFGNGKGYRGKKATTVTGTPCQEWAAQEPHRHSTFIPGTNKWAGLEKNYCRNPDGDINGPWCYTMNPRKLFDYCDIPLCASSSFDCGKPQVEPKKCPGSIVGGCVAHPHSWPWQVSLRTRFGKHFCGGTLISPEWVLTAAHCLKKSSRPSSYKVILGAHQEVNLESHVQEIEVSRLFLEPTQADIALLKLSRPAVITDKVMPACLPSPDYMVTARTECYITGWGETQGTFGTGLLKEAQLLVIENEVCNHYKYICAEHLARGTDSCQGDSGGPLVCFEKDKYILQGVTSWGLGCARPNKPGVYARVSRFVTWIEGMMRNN

This assay addresses Lp(a) assembly in HepG2 cells overexpressing ApoA protein (Homo sapiens (Human), UniProt P08519). Kind of assay: ELISA assay on screening Lp(a) assembly inhibition. It is filed as cell-based. The settings on record: HepG2 cells overexpressing ApoA protein, 24 h, ELISA of supernatant. The protocol: Test Example 1 and Methods of ELISA Assay on Screening Lp(a) Assembly Inhibition
• 1) Preheated the culture media, DPBS, and pancreatin in a 37° C. water bath in advance. • 2) Digested cells with pancreatin, transferred the cell suspension to a 15 mL centrifuge tube, and centrifuged at 1000 rpm for 5 min. • 3) Resuspended the cells with culture media and transferred the cell suspension to a new T75 cell culture flask. • 4) Cultured at 37° C. in a 5% CO2 incubator.
• 1) Seeded HepG2 cells overexpressing of ApoA protein into a 96-well plate at 100 μL per well and incubated overnight for attachment. • 2) Replaced with fresh culture media the next day, then added diluted compounds, and cultured the cell plate in a 5% CO2, 37° C. incubator for 24 h.
• 1) Added 10 μL of 1.5 M EACA to each well. • 2) Centrifuged at 1000 rpm for 1 min, and transferred 100 μL of cell culture supernatant to a pre-coated ELISA plate.
• 1) Added 100 μL of capture antibody to each well of a pre-coated ELISA plate and incubated overnight at 25° C. • 2) Added 300 μL of washing solution to each well and washed 5 times for 1 min each time. • 3) Added 100 μL of blocking solution to each well and incubated at 25° C. for 2 h. • 4) Added 300 μL of washing solution to each well and washed 5 times for 1 min each time. • 5) Added 100 μL of sample to each well and incubated at 25° C. for 1 h. • 6) Added 300 μL of washing solution to each well and washed 5 times for 1 min each time. • 7) Added 100 μL of detection antibody to each well and incubated at 25° C. for 1 h. • 8) Added 300 μL of washing solution to each well and washed 5 times for 1 min each time. • 9) Added 100 μL substrate solution (Color Reagent A: Color Reagent B, 1:1) to each well and incubated for 20 min at 25° C. in the dark. • 10) Added […] of stop solution to each well, gently blowed and sucked several times with the pipette tip, and read within 5 min.
[formula] • X: cpd concentration • Y: inhibition % • Top and Bottom: Plateaus in same units as Y • log IC50: same log units as X • HillSlope: Slope factor or Hill slope
A general note: An ELISA detects its analyte on a solid surface through an enzyme-linked reagent.
As usually defined, the IC50 is the point on the concentration scale where inhibition reaches its midpoint. Low readings indicate greater potency, high ones weaker potency. `O=C(O)[C@@H](Cc1cccc(CN(CCOc2cccc(C[C@H](C(=O)O)[C@H]3CCNC3)c2)C(=O)COc2cccc(C[C@H](C(=O)O)[C@H]3CCNC3)c2)c1)[C@H]1CCNC1` [Compound 135, (S)-3-(3-(2-((3-((S)-2-carboxy-2-((R)-pyrrolidin-3-yl)ethyl)benzyl)(2-(3-((S)-2-carboxy-2-((R)-pyrrolidin-3-yl)ethyl)phenoxy)ethyl)amino)-2-oxoethoxy)phenyl)-2-((R)-pyrrolidin-3-yl)propanoic acid] showed an IC50 of 0.71 nM.
In the case of `O=C(O)[C@@H](Cc1csc(CN(Cc2cc(C[C@H](C(=O)O)[C@H]3CCNC3)cs2)Cc2cc(C[C@H](C(=O)O)[C@H]3CCNC3)cs2)c1)[C@H]1CCNC1` [Compound 137, (2S,2′S,2″S)-3,3′,3″-((nitrilotris(methylene))tris(thiophene-5,3-diyl))tris(2-((R)-pyrrolidin-3-yl)propanoic acid)] it was 1.08 nM; in that of `O=C(O)[C@@H](Cc1cccc(CN(CCOc2cccc(C[C@H](C(=O)O)[C@H]3CCNC3)c2)C(=O)Oc2cccc(C[C@H](C(=O)O)[C@H]3CCNC3)c2)c1)[C@H]1CCNC1` [Compound 139, (S)-3-(3-(2-((3-((S)-2-carboxy-2-((R)-pyrrolidin-3-yl)ethyl)benzyl)((3-((S)-2-carboxy-2-((R)-pyrrolidin-3-yl)ethyl)phenoxy)carbonyl)amino)ethoxy)phenyl)-2-((R)-pyrrolidin-3-yl)propanoic acid], 0.66 nM.
The result for `O=C(O)[C@@H](Cc1cccc(CCC(=O)N(CCOc2cccc(C[C@H](C(=O)O)[C@H]3CCNC3)c2)Cc2cccc(C[C@H](C(=O)O)[C@H]3CCNC3)c2)c1)[C@H]1CCNC1` [Compound 140, (S)-3-(3-(3-((3-((S)-2-carboxy-2-((R)-pyrrolidin-3-yl)ethyl)benzyl)(2-(3-((S)-2-carboxy-2-((R)-pyrrolidin-3-yl)ethyl)phenoxy)ethyl)amino)-3-oxopropyl)phenyl)-2-((R)-pyrrolidin-3-yl)propanoic acid] reads 0.79 nM; that for `O=C(O)[C@@H](Cc1cccc(CNC(=O)N(CCOc2cccc(C[C@H](C(=O)O)[C@H]3CCNC3)c2)Cc2cccc(C[C@H](C(=O)O)[C@H]3CCNC3)c2)c1)[C@H]1CCNC1` [Compound 141, (S)-3-(3-(2-(1,3-bis(3-((S)-2-carboxy-2-((R)-pyrrolidin-3-yl)ethyl)benzyl)ureido)ethoxy)phenyl)-2-((R)-pyrrolidin-3-yl)propanoic acid], 1.02 nM.
In the case of `O=C(Cc1cccc(C[C@H](C(=O)O)[C@H]2CCNC2)c1)NCCOc1cccc(C[C@H](C(=O)O)[C@H]2CCNC2)c1` [Compound 142, (S)-3-(3-(2-((2-(3-((S)-2-carboxy-2-((R)-pyrrolidin-3-yl)ethyl)phenoxy)ethyl)amino)-2-oxoethyl)phenyl)-2-((R)-pyrrolidin-3-yl)propanoic acid] it was 3.19 nM.
As to `O=C(O)[C@@H](Cc1noc2cc(CN(Cc3ccc4c(C[C@H](C(=O)O)[C@H]5CCNC5)noc4c3)Cc3ccc4c(C[C@H](C(=O)O)[C@H]5CCNC5)noc4c3)ccc12)[C@H]1CCNC1` [Compound 144, (2S,2′S,2″S)-3,3′,3″-((nitrilotris(methylene))tris(benzo[d]isoxazole-6,3-diyl))tris(2-((R)-pyrrolidin-3-yl)propanoic acid)], the IC50 is 1.18 nM.
As for `O=C(O)[C@@H](Cc1cccc(COC(=O)N(CCOc2cccc(C[C@H](C(=O)O)[C@H]3CCNC3)c2)Cc2cccc(C[C@H](C(=O)O)[C@H]3CCNC3)c2)c1)[C@H]1CCNC1` [Compound 145, (S)-3-(3-(2-((3-((S)-2-carboxy-2-((R)-pyrrolidin-3-yl)ethyl)benzyl)(((3-((S)-2-carboxy-2-((R)-pyrrolidin-3-yl)ethyl)benzyl)oxy)carbonyl)amino)ethoxy)phenyl)-2-((R)-pyrrolidin-3-yl)propanoic acid], the IC50 turned out to be 1.72 nM.
